Reference: patent US11091478B2 (Fochon Pharmaceuticals, Ltd., priority 2017, dated 2021)

Assays:
DOHH2 cells = assay: Cell proliferation assay (MTS), DOHH2 cells, 120 h; assay type: cell-based; conditions: Homo sapiens, DOHH-2, 120 h
Outline: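 Cells in RPMI-1640 with 10% FBS were seeded at 5000/well, left overnight at 37° C., 5% CO2, then exposed to compound at 10000 down to 1.5 nM (nine concentrations) for 72 h (RS4;11) or 120 h (DOHH2). Viability was read by MTS, 2 h, absorbance at 490/650 nm; IC50 calculated.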

RS4;11 cells = assay: Cell proliferation assay (MTS), RS4;11 cells, 72 h; assay type: cell-based; conditions: Homo sapiens, RS4-11, 72 h
From the text: Cell Proliferation Assays
MTS testing kit was purchased from Promega. The RPMI-1640, Fetal bovine serum and Penicillin-Streptomycin were purchased from Gibco. Dimethyl sulfoxide (DMSO) was purchased from Sigma.
To investigate whether a compound is able to inhibit the activity of BCL-2 in cells, a mechanism-based assay using DOHH2 (DSMZ No.® ACC 47) and RS4;11 (ATCC® CRL-1873™) cell was developed. In this assay, inhibition of Bcl-2 was detected by the inhibition of DOHH2 cells proliferation. DOHH2 cells were cultured in culture flasks to 40-80% confluence in RPMI-1640 plus 10% fetal bovine serum. Cells were collected and plated onto 96-well plates at desired cell density (5000 cells/well). Plates were incubated overnight at 37° C., with 5% CO2 to adhere. Compounds were added to the plates, and the final compound concentrations were 10000, 3333, 1111, […], 124, 41, 14, 4.6 and 1.5 nM. Plates plated with DOHH2 or RS4;11 cells were placed at 37° C., with 5% CO2 for 120 h (DOHH2) or 72 h (RS4;11) respectively. 20 μl MTS/100 μl medium mixture solution were added to each well and incubate the plates for exactly 2 hours. The reaction was stopped by adding 25 μl 10% SDS per well. Measure absorbance at 490 nm and 650 nm (reference wavelength). IC50 was calculated using GraphPad Prism 5.0.
Select compounds prepared as described above were assayed according to the biological procedures described herein.

SMILES | IC50 (RS4;11 cells) | IC50 (DOHH2 cells)
CC1(C)CCC(CN2CCN(c3ccc(C(=O)NS(=O)(=O)c4cc5c(c([N+](=O)[O-])c4)N[C@@H](CCO)C5)c(Oc4cnc5[nH]ccc5c4)c3)CC2)=C(c2ccc(Cl)cc2)C1 [Example 1-19, (R)-2-((1H-pyrrolo[2,3-b]pyridin-5-yl)oxy)-4-(4-((4′-chloro-5,5-dimethyl-3,4,5,6-tetra-hydro-[1,1′-biphenyl]-2-yl)methyl)piperazin-1-yl)-N-((2-(2-hydroxyethyl)-7-nitro-indolin-5-yl)sulfonyl)benzamide] | 93 nM | 96 nM
CC1(C)CCC(CN2CCN(c3ccc(C(=O)NS(=O)(=O)c4cc([N+](=O)[O-])c5[nH]c(CN6CCOCC6)cc5c4)c(Oc4cnc5[nH]ccc5c4)c3)CC2)=C(c2ccc(Cl)cc2)C1 [Example 1-21, 2-((1H-pyrrolo[2,3-b]pyridin-5-yl)oxy)-4-(4-((4′-chloro-5,5-dimethyl-3,4,5,6-tetra-hydro-[1,1′-biphenyl]-2-yl)methyl)piperazin-1-yl)-N-((2-(morpholino-methyl)-7-nitro-1H-indol-5-yl)sulfonyl)benzamide] | 1 nM | 12 nM
COC(=O)C[C@@H]1Cc2cc(S(=O)(=O)NC(=O)c3ccc(N4CCN(CC5=C(c6ccc(Cl)cc6)CC(C)(C)CC5)CC4)cc3Oc3cnc4[nH]ccc4c3)cc([N+](=O)[O-])c2N1 [Example 1-22, methyl (S)-2-(5-(N-(2-((1H-pyrrolo[2,3-b]pyridin-5-yl)oxy)-4-(4-((4′-chloro-5,5-dimethyl-3,4,5,6-tetrahydro-[1,1′-biphenyl]-2-yl)methyl)piperazin-1-yl)benzoyl)sulfamoyl)-7-nitro-indolin-2-yl)acetate] | 47 nM | 175 nM
CN(C)C(=O)C[C@@H]1Cc2cc(S(=O)(=O)NC(=O)c3ccc(N4CCN(CC5=C(c6ccc(Cl)cc6)CC(C)(C)CC5)CC4)cc3Oc3cnc4[nH]ccc4c3)cc([N+](=O)[O-])c2N1 [Example 1-23, (S)-2-((1H-pyrrolo[2,3-b]pyridin-5-yl)oxy)-4-(4-((4′-chloro-5,5-dimethyl-3,4,5,6-tetra-hydro-[1,1′-biphenyl]-2-yl)methyl)piperazin-1-yl)-N-((2-(2-(dimethylamino)-2-oxoeth-yl)-7-nitroindolin-5-yl)sulfonyl)benzamide] | 20 nM | 57 nM
CC1(C)CCC(CN2CCN(c3ccc(C(=O)NS(=O)(=O)c4cc5c(c([N+](=O)[O-])c4)N[C@H](CC(=O)N4CCOCC4)C5)c(Oc4cnc5[nH]ccc5c4)c3)CC2)=C(c2ccc(Cl)cc2)C1 [Example 1-24, (S)-2-((1H-pyrrolo[2,3-b]pyridin-5-yl)oxy)-4-(4-((4′-chloro-5,5-dimethyl-3,4,5,6-tetra-hydro-[1,1′-biphenyl]-2-yl)methyl)piperazin-1-yl)-N-((2-(2-morpholino-2-oxoethyl)-7-nitroindolin-5-yl)sulfonyl)benzamide] | 73 nM | 41 nM
CN1CCN(C(=O)C[C@H]2Cc3cc(S(=O)(=O)NC(=O)c4ccc(N5CCN(CC6=C(c7ccc(Cl)cc7)CC(C)(C)CC6)CC5)cc4Oc4cnc5[nH]ccc5c4)cc([N+](=O)[O-])c3N2)CC1 [Example 1-25] | 6 nM | 6 nM
CC1(C)CCC(CN2CCN(c3ccc(C(=O)NS(=O)(=O)c4cc5c(c([N+](=O)[O-])c4)N[C@@H](CC(=O)N4CCOCC4)C5)c(Oc4cnc5[nH]ccc5c4)c3)CC2)=C(c2ccc(Cl)cc2)C1 [Example 1-26, (R)-2-((1H-pyrrolo[2,3-b]pyridin-5-yl)oxy)-4-(4-((4′-chloro-5,5-dimethyl-3,4,5,6-tetra-hydro-[1,1′-biphenyl]-2-yl)methyl)piperazin-1-yl)-N-((2-(2-morpholino-2-oxoethyl)-7-nitroindolin-5-yl)sulfonyl)benzamide] | 12 nM | 102 nM

Second part, led by results:

IC50 (RS4;11 cells) | SMILES | IC50 (DOHH2 cells)
1 nM | CN1CCN(C[C@H]2COc3cc(S(=O)(=O)NC(=O)c4ccc(N5CCN(CC6=C(c7ccc(Cl)cc7)CC(C)(C)CC6)CC5)cc4Oc4cnc5[nH]ccc5c4)cc([N+](=O)[O-])c3N2)CC1 [Example 2-1, (S)-2-((1H-pyrrolo[2,3-b]pyridin-5-yl)oxy)-4-(4-((4′-chloro-5,5-dimethyl-3,4,5,6-tetrahydro-[1,1′-biphenyl]-2-yl)methyl)piperazin-1-yl)-N-((3-((4-methylpiperazin-1-yl)methyl)-5-nitro-3,4-dihydro-2H-benzo[b][1,4]oxazin-7-yl)sulfonyl)benzamide] | 6 nM
2 nM | CC1(C)CCC(CN2CCN(c3ccc(C(=O)NS(=O)(=O)c4cc5c(c([N+](=O)[O-])c4)N[C@H](CCN4CCOCC4)CO5)c(Oc4cnc5[nH]ccc5c4)c3)CC2)=C(c2ccc(Cl)cc2)C1 [Example 2-2] | 8 nM
3 nM | CC1(C)CCC(CN2CCN(c3ccc(C(=O)NS(=O)(=O)c4cc5c(c([N+](=O)[O-])c4)N[C@H](CN4CCOCC4)CO5)c(Oc4cnc5[nH]ccc5c4)c3)CC2)=C(c2ccc(Cl)cc2)C1 [Example 2-5, (R)-2-((1H-pyrrolo[2,3-b]pyridin-5-yl)oxy)-4-(4-((4′-chloro-5,5-dimethyl-3,4,5,6-tetra-hydro-[1,1′-biphenyl]-2-yl)methyl)piperazin-1-yl)-N-((3-(morpholinomethyl)-5-nitro-3,4-dihydro-2H-benzo[b][1,4]oxazin-7-yl)sulfonyl)benzamide] | 12 nM
2 nM | CC1(C)CCC(CN2CCN(c3ccc(C(=O)NS(=O)(=O)c4cc5c(c([N+](=O)[O-])c4)N[C@H](CN4CCC(C)(O)CC4)CO5)c(Oc4cnc5[nH]ccc5c4)c3)CC2)=C(c2ccc(Cl)cc2)C1 [Example 2-6, (R)-2-((1H-pyrrolo[2,3-b]pyridin-5-yl)oxy)-4-(4-((4′-chloro-5,5-dimethyl-3,4,5,6-tetra-hydro-[1,1′-biphenyl]-2-yl)methyl)piperazin-1-yl)-N-((3-((4-hydroxy-4-methylpiperdin-1-yl)methyl)-5-nitro-3,4-dihydro-2H-benzo[b][1,4]oxazin-7-yl)sulfonyl)benzamide] | 18 nM
72 nM | CN(C)C[C@@H]1COc2cc(S(=O)(=O)NC(=O)c3ccc(N4CCN(CC5=C(c6ccc(Cl)cc6)CC(C)(C)CC5)CC4)cc3Oc3cnc4[nH]ccc4c3)cc([N+](=O)[O-])c2N1 [Example 2-7, (R)-2-((1H-pyrrolo[2,3-b]pyridin-5-yl)oxy)-4-(4-((4′-chloro-5,5-dimethyl-3,4,5,6-tetra-hydro-[1,1′-biphenyl]-2-yl)methyl)piperazin-1-yl)-N-((3-((dimethylamino)methyl)-5-nitro-3,4-dihydro-2H-benzo[b][1,4]oxazin-7-yl)sulfonyl)benzamide] | 95 nM
14 nM | CC1(C)CCC(CN2CCN(c3ccc(C(=O)NS(=O)(=O)c4cc5c(c([N+](=O)[O-])c4)N[C@H](CO)CO5)c(Oc4cnc5[nH]ccc5c4)c3)CC2)=C(c2ccc(Cl)cc2)C1 [Example 2-8, (R)-2-((1H-pyrrolo[2,3-b]pyridin-5-yl)oxy)-4-(4-((4′-chloro-5,5-dimethyl-3,4,5,6-tetra-hydro-[1,1′-biphenyl]-2-yl)methyl)piperazin-1-yl)-N-((3-(hydroxymethyl)-5-nitro-3,4-dihydro-2H-benzo[b][1,4]oxazin-7-yl)sulfonyl)benzamide] | 67 nM
10 nM | CN1CCN(CC[C@H]2COc3cc(S(=O)(=O)NC(=O)c4ccc(N5CCN(CC6=C(c7ccc(Cl)cc7)CC(C)(C)CC6)CC5)cc4Oc4cnc5[nH]ccc5c4)cc([N+](=O)[O-])c3N2)CC1 [Example 2-9, (S)-2-((1H-pyrrolo[2,3-b]pyridin-5-yl)oxy)-4-(4-((4′-chloro-5,5-dimethyl-3,4,5,6-tetra-hydro-[1,1′-biphenyl]-2-yl)methyl)piperazin-1-yl)-N-((3-(2-(4-methylpiperazin-1-yl)eth-yl)-5-nitro-3,4-dihydro-2H-benzo[b][1,4]oxazin-7-yl)sulfonyl)benzamide] | 33 nM
9 nM | CC1(C)CCC(CN2CCN(c3ccc(C(=O)NS(=O)(=O)c4cc5c(c([N+](=O)[O-])c4)N[C@@H](CCN4CCOCC4)CO5)c(Oc4cnc5[nH]ccc5c4)c3)CC2)=C(c2ccc(Cl)cc2)C1 [Example 2-10, (S)-2-((1H-pyrrolo[2,3-b]pyridin-5-yl)oxy)-4-(4-((4′-chloro-5,5-dimethyl-3,4,5,6-tetra-hydro-[1,1′-biphenyl]-2-yl)methyl)piperazin-1-yl)-N-((3-(2-morpholinoethyl)-5-nitro-3,4-dihydro-2H-benzo[b][1,4]oxazin-7-yl)sulfonyl)benzamide] | 28 nM
